In data set [1] the target is T1, Retinal rod rhodopsin-sensitive cGMP 3',5'-cyclic phosphodiesterase subunit delta (Homo sapiens, UniProt O43924).
Description: Inhibition of Atrovastatin-PEG3-FITC binding to PDEdelta (unknown origin) incubated for 60 mins by fluorescence anisotropy assay
Data set [2] concerns CAPAN-1. Description: Antiproliferative activity against KRAS-dependent human Capan1 cells after 48 hrs by CCK8 assay.
Data set [3] is described as follows: Aqueous solubility of the compound at 5 mg/ml measured after 24 hrs by HPLC method. It counts as physicochemical. As to conditions: water (aqueous).
Data set [4] concerns CAPAN-1. Description: Induction of apoptosis in KRAS-dependent human Capan1 cells at 25 uM incubated for 48 hrs by Annexin-V FITC/propidium iodide staining-based flow cytometry relative to control. It counts as functional.
Data set [5] deals with CAPAN-1. Description: Downregulation of PDEdelta protein expression in KRAS-dependent human Capan1 cells at 25 uM incubated for 2 hrs by immunofluorescence staining-based method. It counts as functional, cell-based.
The subject of data set [6] is CAPAN-1. The experiment in a line: Induction of apoptosis in KRAS-dependent human Capan1 cells at 50 uM incubated for 48 hrs by Annexin-V FITC/propidium iodide staining-based flow cytometry relative to control. It counts as functional.
Data set [7] deals with T1, Retinal rod rhodopsin-sensitive cGMP 3',5'-cyclic phosphodiesterase subunit delta. The following applies: 1 mM.
Description: Binding affinity to PDEdelta (unknown origin) assessed as change in melting temperature at 1 mM by circular dichroism spectroscopy
For data set [8], the system named is CAPAN-1. The experiment in a line: Potency index, ratio of deltazinone IC50 to test compound IC50 for KRAS-dependent human Capan1 cells. It counts as functional.
For data set [9], the target named is T1, Retinal rod rhodopsin-sensitive cGMP 3',5'-cyclic phosphodiesterase subunit delta. The following applies: 10 uM.
Description: Inhibition of PDEdelta in KRAS-dependent human Capan1 cells assessed as downregulation of EGF-induced AKT phosphorylation at Ser473 at 10 uM incubated for >5 hrs by Western blot method
For data set [10] the target is unchanged. The following applies: 10 uM. This is another data set of the same source.
Description: Inhibition of PDEdelta in KRAS-dependent human Capan1 cells assessed as downregulation of EGF-induced ERK phosphorylation at Thr202/Thr204 at 10 uM incubated for >5 hrs by Western blot method
Data set [11] concerns CAPAN-1. The experiment in a line: Downregulation of PDEdelta protein expression in KRAS-dependent human Capan1 cells at 10 uM incubated for 2 hrs by immunofluorescence staining-based method. It counts as functional, cell-based.
The target in data set [12] is T1, Retinal rod rhodopsin-sensitive cGMP 3',5'-cyclic phosphodiesterase subunit delta. The following applies: 10 uM. The source holds these as a separate data set.
Description: Inhibition of PDEdelta in KRAS-dependent human Capan1 cells assessed as increase in endogenous RAS distribution to endomembranes at 10 uM incubated for 2 hrs by immunofluorescence staining based method
Data set [13] deals with CAPAN-1. Description: Induction of apoptosis in KRAS-dependent human Capan1 cells incubated for 48 hrs by Annexin-V FITC/propidium iodide staining-based flow cytometry. The class given is functional, cell-based.
The test system of data set [14] is CAPAN-1. Description: Induction of apoptosis in KRAS-dependent human Capan1 cells at 10 uM incubated for 48 hrs by Annexin-V FITC/propidium iodide staining-based flow cytometry relative to control. It counts as functional.
Data set [15] concerns the target RAC-alpha serine/threonine-protein kinase (Homo sapiens) (UniProt P31749). Description: […] of EGF-induced AKT phosphorylation at Ser473 in human Capan1 cells at 25 uM after 1 hr by Western blot method. It counts as cell-based.
The species entered for the next data set is Homo sapiens. Description: Effect on EGF-induced ERK phosphorylation at Thr202/Tyr204 in human Capan1 cells at 25 uM after 1 hr by Western blot method.
Data set [16] has as its system CAPAN-1. Description: Antiproliferative activity against KRAS-dependent human Capan1 cells at 100 uM after 48 hrs by CCK8 assay relative to control. The class given is functional.

Converted amounts (≈) assume the structure as drawn. The source made the active and inactive calls. No cut-off for these calls is given here.

T1 sequence (O43924 whole entry): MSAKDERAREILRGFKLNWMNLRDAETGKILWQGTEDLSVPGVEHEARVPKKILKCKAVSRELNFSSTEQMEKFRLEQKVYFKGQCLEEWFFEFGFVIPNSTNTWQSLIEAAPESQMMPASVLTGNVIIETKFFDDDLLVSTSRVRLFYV
Sequence of RAC-alpha serine/threonine-protein kinase (Homo sapiens) (P31749 whole entry): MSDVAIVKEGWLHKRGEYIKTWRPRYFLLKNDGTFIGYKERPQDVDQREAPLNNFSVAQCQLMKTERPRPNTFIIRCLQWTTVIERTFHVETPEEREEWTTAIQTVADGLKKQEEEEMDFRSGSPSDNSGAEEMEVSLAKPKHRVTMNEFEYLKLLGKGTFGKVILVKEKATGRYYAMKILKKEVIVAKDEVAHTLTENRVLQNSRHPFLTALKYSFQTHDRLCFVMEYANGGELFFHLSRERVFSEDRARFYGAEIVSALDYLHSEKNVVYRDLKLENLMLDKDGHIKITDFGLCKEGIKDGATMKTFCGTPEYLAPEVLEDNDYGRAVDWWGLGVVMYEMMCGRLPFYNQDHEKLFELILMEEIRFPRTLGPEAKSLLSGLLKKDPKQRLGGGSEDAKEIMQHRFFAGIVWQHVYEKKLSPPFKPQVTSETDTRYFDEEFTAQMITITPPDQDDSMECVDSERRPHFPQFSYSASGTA

As for `Cc1ccc(-n2nc3c(=O)n(CCC(=O)N4CCC(N5C(=O)c6ccccc6NC5c5ccccc5F)CC4)nc(C)c3c2C)cc1` (stereo in doubt; 3b) [listing 1 of 2 here], the Kd in data set [1] came out at 0.002 µM. The IC50 in the data set on CAPAN-1 [2] (capan-1) stood at 18.6 µM. In [3], this compound registered a solubility at 24 h of 268 µM (≈ 170 µg/mL). The compound further gave an Activity in the data set with CAPAN-1 [4] of 50%.

For the compound `O=C1c2ccccc2NC(c2ccccc2F)N1CCOc1ccc(N2C(=O)c3ccccc3NC2c2ccccc2F)cc1` (stereo not given), the concentration in solution in data set [3] (solubility at 24 h) came to 3.2 µM (≈ 1.93 µg/mL).

As for `O=C1c2ccccc2N[C@@H](c2ccccc2F)N1CCN1CCC(N2C(=O)c3ccccc3N[C@H]2c2ccccc2F)CC1`, the result in the data set on CAPAN-1 [5] was Active. Moreover, the values for the Activity in the data set with CAPAN-1 [6] and in the data set on CAPAN-1 [4] were 39.3% and 23.6%, respectively.

With `O=C1c2ccccc2N[C@H](c2ccccc2F)N1c1ccccc1`, in [7], the ΔTm was 5.75 °C.

For the compound `Cc1ccc(-n2nc3c(=O)n(CCC(=O)N4CCC(N5C(=O)c6ccccc6NC5c5ccccc5F)CC4)nc(C)c3c2C)cc1` (single isomer, unassigned; (-)), in data set [1], the Kd amounted to 0.037 µM. This compound registered an IC50 in the data set with CAPAN-1 [2] (capan-1) of 25.6 µM.

Compound `O=C1c2ccccc2NC(c2ccccc2F)N1CCCCCCCN1C(=O)c2ccccc2NC1c1ccccc1F` (stereo not given) registered a solubility at 24 h in data set [3] of 30.9 µM (≈ 17.9 µg/mL).

The compound `Cc1ccc(-n2nc3c(=O)n(CCC(=O)N4CCC(N5C(=O)c6ccccc6NC5c5ccccc5F)CC4)nc(C)c3c2C)cc1` (stereo in doubt; (+)-3b) registered a Kd in [1] of 0.0006 µM. In the data set with CAPAN-1 [2] (capan-1), this compound came in with an IC50 of 12.4 µM. The “Ratio IC50” value with CAPAN-1 [8] stood at 4.

Turning to `Cc1ccc(-n2nc3c(=O)n(CCC(=O)N4CCC(N5C(=O)c6ccccc6NC5c5ccccc5F)CC4)nc(C)c3c2C)cc1` (stereo in doubt; 3b) [listing 2 of 2 here], the inhibition result in [9], in data set [10] and in [12] was “Active” each time. In addition, in the data set with CAPAN-1 [11], the outcome was Active. In addition, the Activity result with CAPAN-1 [13] is “Dose-dependent effect”.

Compound `Cc1ccc(-n2nc3c(=O)n(CCCN4CCC(N5C(=O)c6ccccc6NC5c5ccccc5F)CC4)nc(C)c3c2C)cc1` (stereo not given) had an IC50 with CAPAN-1 [2] (Homo sapiens, CAPAN-1, 48 h) of 27.6 µM. The solubility at 24 h in data set [3] was found to be 403 µM (≈ 250 µg/mL). The Activity with CAPAN-1 [4] was 50%; in the data set with CAPAN-1 [13], “Dose-dependent effect”.

As for `O=C1c2ccccc2NC(c2ccccc2F)N1CCCCCCN1C(=O)c2ccccc2NC1c1ccccc1F` (stereo not given), in [3], the concentration in solution (solubility at 24 h) was 14 µM (≈ 7.93 µg/mL).

As for `Cc1ccc(-n2nc3c(=O)n(CCCC(=O)NCC(C)c4ccccc4)nc(C)c3c2C)cc1` (stereo not given), the IC50 in the data set on CAPAN-1 [2] (Homo sapiens, CAPAN-1, 48 h) worked out at 56.9 µM. The Activity in the data set with CAPAN-1 [14] was 10%. Further, in [15], the outcome was Active. Moreover, the result in the data set filed under Homo sapiens was inactive.

In the case of `O=C1c2ccccc2NC(c2ccccc2F)N1c1ccccc1` (racemic), in data set [7], the shift in melting temperature (ΔTm) was determined as 12.7 °C.

Compound `O=C1c2cccc3cccc(c23)N1c1ccc(-c2ccccc2)cc1` returned a solubility at 24 h in data set [3] of 0.37 µM (≈ 0.119 µg/mL).

Consider `O=C1c2ccccc2N[C@@H](c2ccccc2F)N1c1ccccc1`, for which the ΔTm in data set [7] came out at 14 °C.

`O=C1c2ccccc2NC(c2ccccc2F)N1CCN1CCC(N2C(=O)c3ccccc3NC2c2ccccc2F)CC1` (stereo not given) had a solubility at 24 h in data set [3] of 70.6 µM (≈ 41.9 µg/mL). The compound also showed an Activity in the data set with CAPAN-1 [16] of 48.9%.

Turning to `O=C1c2ccccc2NC(c2ccccc2F)N1CCCCCN1C(=O)c2ccccc2NC1c1ccccc1F` (stereo not given), the concentration in solution in data set [3] (solubility at 24 h) was 8.9 µM (≈ 4.92 µg/mL).

These data come from ChEMBL document CHEMBL4028858, “Structural Biology-Inspired Discovery of Novel KRAS-PDEδ Inhibitors” (J Med Chem, 2017).
